Among the data in patent US20240108006A1, “PESTICIDALLY ACTIVE HETEROAROMATIC COMPOUNDS” (SYNGENTA CROP PROTECTION AG, priority 2021, published 2024) are percent control (mortality, anti-feedant effect or growth inhibition) and percent effect (mortality or growth inhibition) values, retold here.

The structures appear in SMILES notation. Bounds are passed on as bounds.

One experiment relates to Chilo suppressalis. Description: Example B1: Chilo suppressalis (striped rice stemborer), artificial diet, L2 larvae. The experiment is classed as in vivo. The note with it: 144 h, application rate of 200 ppm, 6 days after infestation, read-out: control in at least one of the three categories (mortality, anti-feedant effect, or growth inhibition). The protocol:
Example B1: Chilo suppressalis (Striped Rice Stemborer)
24-well microtiter plates with artificial diet were treated with aqueous test solutions prepared from 10,000 ppm DMSO stock solutions by pipetting. After drying, the plates were infested with L2 larvae (6-8 per well). The samples were assessed for mortality, anti-feeding effect, and growth inhibition in comparison to untreated samples 6 days after infestation. Control of Chilo suppressalis by a test sample is given when at least one of the categories mortality, anti-feedant effect, and growth inhibition is higher than the untreated sample.
`C[C@H](NC(=O)Nc1ccc(F)cc1C(C)(F)F)c1ncnn1-c1ncccn1` [Example P45, 1-[2-(1,1-difluoroethyl)-4-fluoro-phenyl]-3-[(1S)-1-(2-pyrimidin-2-yl-1,2,4-triazol-3-yl)ethyl]urea]: the percent control (mortality, anti-feedant effect or growth inhibition) at 200 ppm is at least 80%.
The same measure, in the same setting: the value for `Cc1cc(Br)ccc1NC(=O)N[C@@H](C)c1ncnn1-c1ncccn1` [Example P106, 1-(4-bromo-2-methyl-phenyl)-3-[(1S)-1-(2-pyrimidin-2-yl-1,2,4-triazol-3-yl)ethyl]urea] was at least 80%; that for `C[C@H](NC(=O)Nc1ccc(F)cc1C(F)(F)F)c1ncnn1-c1ncccn1` [Example P116, 1-[4-fluoro-2-(trifluoromethyl)phenyl]-3-[(1S)-1-(2-pyrimidin-2-yl-1,2,4-triazol-3-yl)ethyl]urea] was at least 80%.
Still for that read-out and setting: the value for `COc1cc(S(C)(=O)=O)c(NC(=O)N[C@@H](C)c2ncnn2-c2ncccn2)cc1Cl` [Example P192, 1-(5-chloro-4-methoxy-2-methylsulfonyl-phenyl)-3-[(1S)-1-(2-pyrimidin-2-yl-1,2,4-triazol-3-yl)ethyl]urea] was at least 80%; that for `Cc1cc(C)c(N2CCCC2=O)cc1NC(=O)N[C@@H](C)c1ncnn1-c1ncccn1` [Example P212, 1-[2,4-dimethyl-5-(2-oxopyrrolidin-1-yl)phenyl]-3-[(1S)-1-(2-pyrimidin-2-yl-1,2,4-triazol-3-yl)ethyl]urea] was at least 80%.
Same read-out and setting: the value for `COc1cc(NC(=O)N[C@@H](C)c2ncnn2-c2ncccn2)c(Br)cc1Cl` [Example P294, 1-(2-bromo-4-chloro-5-methoxy-phenyl)-3-[(1S)-1-(2-pyrimidin-2-yl-1,2,4-triazol-3-yl)ethyl]urea] was at least 80%; that for `Cc1cc(NC(=O)N[C@@H](C)c2ncnn2-c2ncccn2)c(C)cc1F` [Example P295, 1-(4-fluoro-2,5-dimethyl-phenyl)-3-[(1S)-1-(2-pyrimidin-2-yl-1,2,4-triazol-3-yl)ethyl]urea] was at least 80%; that for `Cc1cc(F)c(C#N)cc1NC(=O)N[C@@H](C)c1ncnn1-c1ncccn1` [Example P296, 1-(5-cyano-4-fluoro-2-methyl-phenyl)-3-[(1S)-1-(2-pyrimidin-2-yl-1,2,4-triazol-3-yl)ethyl]urea] was at least 80%.
With `Cc1cc(F)c(C(F)(F)F)cc1NC(=O)N[C@@H](C)c1ncnn1-c1ncccn1` [Example P297, 1-[4-fluoro-2-methyl-5-(trifluoromethyl)phenyl]-3-[(1S)-1-(2-pyrimidin-2-yl-1,2,4-triazol-3-yl)ethyl]urea], the percent control (mortality, anti-feedant effect or growth inhibition) at 200 ppm is at least 80%.
On the same count and under the same terms, the value for `C[C@H](NC(=O)Nc1cc2c(cc1Br)CCC2)c1ncnn1-c1ncccn1` [Example P303, 1-(6-bromoindan-5-yl)-3-[(1S)-1-(2-pyrimidin-2-yl-1,2,4-triazol-3-yl)ethyl]urea] was at least 80%; that for `C[C@@H](c1ncnn1-c1ncccn1)N1CCCN(c2cc(OC(F)(F)C(F)F)c(Cl)cc2Cl)C1=O` [Example P311, 1-[2,4-dichloro-5-(1,1,2,2-tetrafluoroethoxy)phenyl]-3-[(1S)-1-(2-pyrimidin-2-yl-1,2,4-triazol-3-yl)ethyl]hexahydropyrimidin-2-one] was at least 80%; that for `Cc1cc(Cl)ncc1NC(=O)N[C@@H](C)c1ncnn1-c1ncccn1` [Example P318, 1-(6-chloro-4-methyl-3-pyridyl)-3-[(1S)-1-(2-pyrimidin-2-yl-1,2,4-triazol-3-yl)ethyl]urea] was at least 80%.
The same measure, in the same setting: the value for `C[C@H](NC(=O)Nc1cc2c(cc1Br)CCC(=O)N2)c1ncnn1-c1ncccn1` [Example P322, 1-(6-bromo-2-oxo-3,4-dihydro-1H-quinolin-7-yl)-3-[(1S)-1-(2-pyrimidin-2-yl-1,2,4-triazol-3-yl)ethyl]urea] was at least 80%; that for `Cc1cc([N+](=O)[O-])c(C)cc1NC(=O)N[C@@H](C)c1ncnn1-c1ncccn1` [Example P323, 1-(2,5-dimethyl-4-nitro-phenyl)-3-[(1S)-1-(2-pyrimidin-2-yl-1,2,4-triazol-3-yl)ethyl]urea] was at least 80%.
On the same count and under the same terms, the value for `C[C@H](NC(=O)Nc1cc(F)c(Br)cc1F)c1ncnn1-c1ncccn1` [Example P339, 1-(4-bromo-2,5-difluoro-phenyl)-3-[(1S)-1-(2-pyrimidin-2-yl-1,2,4-triazol-3-yl)ethyl]urea] was at least 80%; that for `Cc1cc(Br)ncc1NC(=O)N[C@@H](C)c1ncnn1-c1ncccn1` [Example P342, 1-(6-bromo-4-methyl-3-pyridyl)-3-[(1S)-1-(2-pyrimidin-2-yl-1,2,4-triazol-3-yl)ethyl]urea] was at least 80%.
In the case of `Cc1cc2c(cc1NC(=O)N[C@@H](C)c1ncnn1-c1ncccn1)OCO2` [Example P344, 1-(6-methyl-1,3-benzodioxol-5-yl)-3-[(1S)-1-(2-pyrimidin-2-yl-1,2,4-triazol-3-yl)ethyl]urea], the percent control (mortality, anti-feedant effect or growth inhibition) at 200 ppm was at least 80%.
On the same count and under the same terms, the figure for `C[C@H](NC(=O)Nc1cc(Br)c(F)cc1I)c1ncnn1-c1ncccn1` [Example P371, 1-(5-bromo-4-fluoro-2-iodo-phenyl)-3-[(1S)-1-(2-pyrimidin-2-yl-1,2,4-triazol-3-yl)ethyl]urea] is at least 80%; for `COc1cc(C)c(NC(=O)N[C@@H](C)c2ncnn2-c2ncccn2)cc1F` [Example P378, 1-(5-fluoro-4-methoxy-2-methyl-phenyl)-3-[(1S)-1-(2-pyrimidin-2-yl-1,2,4-triazol-3-yl)ethyl]urea] it is at least 80%.
Take `C[C@H](NC(=O)Nc1cc(Cl)c(F)cc1F)c1ncnn1-c1ncccn1` [Example P379, 1-(5-chloro-2,4-difluoro-phenyl)-3-[(1S)-1-(2-pyrimidin-2-yl-1,2,4-triazol-3-yl)ethyl]urea]: the percent control (mortality, anti-feedant effect or growth inhibition) at 200 ppm was at least 80%.
The same measure, in the same setting: the figure for `Cc1cc(NC(=O)N[C@@H](C)c2ncnn2-c2ncccn2)c(Cl)cc1F` [Example P385, 1-(2-chloro-4-fluoro-5-methyl-phenyl)-3-[(1S)-1-(2-pyrimidin-2-yl-1,2,4-triazol-3-yl)ethyl]urea] is at least 80%; for `C[C@H](NC(=O)Nc1cc(C(F)(F)F)c(Cl)cc1F)c1ncnn1-c1ncccn1` [Example P393, 1-[4-chloro-2-fluoro-5-(trifluoromethyl)phenyl]-3-[(1S)-1-(2-pyrimidin-2-yl-1,2,4-triazol-3-yl)ethyl]urea] it is at least 80%.

The test system of another experiment is Plutella xylostella. Kind of experiment: Example B8: Plutella xylostella (diamond back moth), artificial diet 24-well, eggs. To be noted: 192 h, application rate of 200 ppm, 8 days after infestation, read-out: effect in at least one of the two categories (mortality or growth inhibition). The experiment is classed as in vivo. As for the experimental part: Example B8: Plutella xylostella (Diamond Back Moth)
24-well microtiter plates with artificial diet were treated with aqueous test solutions prepared from 10,000 ppm DMSO stock solutions by pipetting. After drying, Plutella eggs were pipetted through a plastic stencil onto a gel blotting paper and the plate was closed with it. The samples were assessed for mortality and growth inhibition in comparison to untreated samples 8 days after infestation.
The following compounds gave an effect of at least 80% in at least one of the two categories (mortality or growth inhibition) at an application rate of 200 ppm: […]
As to `C[C@H](NC(=O)Nc1cc(Cl)ccc1C(F)(F)F)c1ncnn1-c1ncccn1` [Example P12, 1-[5-chloro-2-(trifluoromethyl)phenyl]-3-[(1S)-1-(2-pyrimidin-2-yl-1,2,4-triazol-3-yl)ethyl]urea], the percent effect (mortality or growth inhibition) at 200 ppm is at least 80%.
On the same count and under the same terms, the value for `C[C@H](NC(=O)Nc1nc(C2CC2)cc(C2CC2)n1)c1ncnn1-c1ncccn1` [Example P33, 1-(4,6-dicyclopropylpyrimidin-2-yl)-3-[(1S)-1-(2-pyrimidin-2-yl-1,2,4-triazol-3-yl)ethyl]urea] was at least 80%; that for `C[C@H](NC(=O)Nc1cc(OCC#N)c(Cl)cc1Cl)c1ncnn1-c1ncccn1` [Example P161, 1-[2,4-dichloro-5-(cyanomethoxy)phenyl]-3-[(1S)-1-(2-pyrimidin-2-yl-1,2,4-triazol-3-yl)ethyl]urea] was at least 80%; that for `CC(NC(=O)N1CCc2cc(C(F)(F)F)ncc21)c1ncnn1-c1ccc(C#N)cn1` (centres unmarked) [Example P171, N-[1-[2-(5-cyano-2-pyridyl)-1,2,4-triazol-3-yl]ethyl]-5-(trifluoromethyl)-2,3-dihydropyrrolo[2,3-c]pyridine-1-carboxamide] was at least 80%.
Same read-out and setting: the figure for `C[C@H](NC(=O)Nc1cc(C(F)(F)F)c(Cl)cc1Cl)c1ncnn1-c1ccc(C(=O)N2CCOCC2)cn1` [Example P175, 1-[2,4-dichloro-5-(trifluoromethyl)phenyl]-3-[(1S)-1-[2-[5-(morpholine-4-carbonyl)-2-pyridyl]-1,2,4-triazol-3-yl]ethyl]urea] is at least 80%; for `C[C@H](NC(=O)Nc1cc(Cl)c(OC(F)(F)C(F)C(F)(F)F)cc1Cl)c1ncnn1-c1ncccn1` (stereo partly drawn) [Example P211, 1-[2,5-dichloro-4-(1,1,2,3,3,3-hexafluoropropoxy)phenyl]-3-[(1S)-1-(2-pyrimidin-2-yl-1,2,4-triazol-3-yl)ethyl]urea] it is at least 80%.
Turning to `COC(=O)c1cc(NC(=O)N[C@@H](C)c2ncnn2-c2ncccn2)c(F)cc1Br` [Example P228, methyl 2-bromo-4-fluoro-5-[[(1S)-1-(2-pyrimidin-2-yl-1,2,4-triazol-3-yl)ethyl]carbamoylamino]benzoate], the percent effect (mortality or growth inhibition) at 200 ppm was at least 80%.
